Experimental data from ChEMBL document CHEMBL1201862, “PubChem BioAssay data set” (2004).
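Protocol summary: plate cells (96-well), add compound at 5 concentrations, incubate 48 h, interpolate endpoints linearly. GI50: concentration for 50% inhibition of growth.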 Active and inactive are the calls of the source. Rule as the data show it: active = GI50 up to about 1.1 µM and inactive = higher.

Key:
Assay in all cases: NCI anticancer screen, dose series, 48 h
A549 = test system: A549
BT-549 = test system: BT-549
CAKI-1 = test system: CAKI-1
COLO 205 = test system: COLO 205
HT-29 = test system: HT-29
K562 = test system: K562
KM12 = test system: KM12
MCF7 = test system: MCF7
MDA-MB-435 = test system: MDA-MB-435
Malme-3M = test system: Malme-3M
NCI-H522 = test system: NCI-H522
OVCAR-3 = test system: OVCAR-3
OVCAR-4 = test system: OVCAR-4
OVCAR-5 = test system: OVCAR-5
SF-539 = test system: SF-539
SK-OV-3 = test system: SK-OV-3
TK-10 = test system: TK-10
U-251 = test system: U-251
A498 = test system: A498

SMILES	GI50 (A549)	GI50 (BT-549)	GI50 (CAKI-1)	GI50 (COLO 205)	GI50 (HT-29)	GI50 (K562)	GI50 (KM12)	GI50 (MCF7)	GI50 (MDA-MB-435)	GI50 (Malme-3M)	GI50 (NCI-H522)	GI50 (OVCAR-3)	GI50 (OVCAR-4)	GI50 (OVCAR-5)	GI50 (SF-539)	GI50 (SK-OV-3)	GI50 (TK-10)	GI50 (U-251)	GI50 (A498)
Cc1cc2ccccc2n2c1nc1ccc(O)cc12	> 10 µM (inactive)	> 10 µM (inactive)	> 10 µM (inactive)	> 10 µM (inactive)	> 10 µM (inactive)	> 10 µM (inactive)	> 10 µM (inactive)	> 10 µM (inactive)	> 10 µM (inactive)	> 10 µM (inactive)	9.04 µM (inactive)	> 10 µM (inactive)	> 10 µM (inactive)	> 10 µM (inactive)	> 10 µM (inactive)	> 10 µM (inactive)	> 10 µM (inactive)	7.71 µM (inactive)	
CCN(CC)c1cc2c3c(c1)CCCN3CCC2	> 10 µM (inactive)		> 10 µM (inactive)	> 10 µM (inactive)	> 10 µM (inactive)	> 10 µM (inactive)	> 10 µM (inactive)	> 10 µM (inactive)	> 10 µM (inactive)	> 10 µM (inactive)	> 10 µM (inactive)	> 10 µM (inactive)	> 10 µM (inactive)		> 10 µM (inactive)	> 10 µM (inactive)	> 10 µM (inactive)	> 10 µM (inactive)	> 10 µM (inactive)
CC[C@H]1C[C@@H](O)[C@@H]2[C@H](O)[C@H](O)CN2C1	> 100 µM (inactive)				> 100 µM (inactive)	> 100 µM (inactive)	> 100 µM (inactive)	> 100 µM (inactive)	> 100 µM (inactive)	> 100 µM (inactive)	> 100 µM (inactive)	> 100 µM (inactive)	> 100 µM (inactive)	> 100 µM (inactive)	> 100 µM (inactive)	> 100 µM (inactive)	> 100 µM (inactive)	> 100 µM (inactive)	
CCN(CC)CCNc1n[n+]([O-])c2ccccc2[n+]1[O-]		16.4 µM (inactive)		5.96 µM (inactive)	5.94 µM (inactive)	1.72 µM (inactive)	9.2 µM (inactive)		12.5 µM (inactive)	6.76 µM (inactive)		7.21 µM (inactive)		13.2 µM (inactive)	9.27 µM (inactive)	4 µM (inactive)	11.3 µM (inactive)	12.8 µM (inactive)	
O=[N+]([O-])c1cc(-[n+]2cc([O-])on2)ccc1F	17 µM (inactive)	16.1 µM (inactive)	2.11 µM (inactive)	17.7 µM (inactive)	14.9 µM (inactive)	34.4 µM (inactive)	17.2 µM (inactive)	12.8 µM (inactive)	16.2 µM (inactive)	14.7 µM (inactive)	9.02 µM (inactive)	17 µM (inactive)	11.9 µM (inactive)	16.5 µM (inactive)		20.4 µM (inactive)	18.4 µM (inactive)	18.1 µM (inactive)	
C=CCCc1cc(OC)ccc1CN(C)C(C)(C)CO	> 100 µM (inactive)		> 100 µM (inactive)	> 100 µM (inactive)	> 100 µM (inactive)	> 100 µM (inactive)	> 100 µM (inactive)			> 100 µM (inactive)		> 100 µM (inactive)	> 100 µM (inactive)	> 100 µM (inactive)	> 100 µM (inactive)		> 100 µM (inactive)	> 100 µM (inactive)	> 100 µM (inactive)
CCCN(CCCc1ccccc1)CCc1ccc2[nH]c(=S)[nH]c2c1	34 µM (inactive)	68.9 µM (inactive)	28.9 µM (inactive)	16.8 µM (inactive)		2.02 µM (inactive)	26.1 µM (inactive)	28.2 µM (inactive)	18.7 µM (inactive)	12.9 µM (inactive)		37.1 µM (inactive)	76.4 µM (inactive)	48.5 µM (inactive)		53.8 µM (inactive)	71.1 µM (inactive)	33.4 µM (inactive)	> 100 µM (inactive)
CC(C)C1=C(Cc2ccccc2)C(=O)O/C1=C\c1ccc(O)c(Cl)c1	15.1 µM (inactive)	22.2 µM (inactive)	18.6 µM (inactive)	20.4 µM (inactive)	18.8 µM (inactive)	16 µM (inactive)	18.1 µM (inactive)	15.7 µM (inactive)	17 µM (inactive)	15.8 µM (inactive)		14.8 µM (inactive)	14.7 µM (inactive)	18.4 µM (inactive)	18.6 µM (inactive)	19.5 µM (inactive)	17.7 µM (inactive)	16.7 µM (inactive)	17.6 µM (inactive)
O=C1c2ccccc2-c2cc3ccccc3c(=O)n21	> 100 µM (inactive)			> 100 µM (inactive)	> 100 µM (inactive)	> 100 µM (inactive)	> 100 µM (inactive)	29 µM (inactive)	> 100 µM (inactive)		15.5 µM (inactive)	> 100 µM (inactive)		> 100 µM (inactive)	> 100 µM (inactive)		> 100 µM (inactive)		
c1ccc2cc3c(NC4=NCCO4)cccc3cc2c1	> 100 µM (inactive)		52.5 µM (inactive)	35.9 µM (inactive)	29.9 µM (inactive)	37.2 µM (inactive)	44.7 µM (inactive)	68.7 µM (inactive)	37.1 µM (inactive)	36.1 µM (inactive)	> 100 µM (inactive)	32.2 µM (inactive)	35.6 µM (inactive)	> 100 µM (inactive)	97.5 µM (inactive)	> 100 µM (inactive)	86.9 µM (inactive)	> 100 µM (inactive)	67.6 µM (inactive)
CC[C@]1(Cc2ccc(OC)c(OC)c2)CN(S(=O)(=O)c2ccc(C)cc2)C[C@@H]1OC(C)=O	54.8 µM (inactive)		95.7 µM (inactive)	> 100 µM (inactive)	96.8 µM (inactive)	> 100 µM (inactive)	> 100 µM (inactive)	> 100 µM (inactive)	> 100 µM (inactive)	> 100 µM (inactive)		67.8 µM (inactive)	> 100 µM (inactive)	> 100 µM (inactive)	69.5 µM (inactive)	64.6 µM (inactive)	> 100 µM (inactive)	65.6 µM (inactive)	> 100 µM (inactive)
Cc1ccc2nc(-c3ccc(N)c(I)c3)sc2c1	15.2 µM (inactive)	97.7 µM (inactive)	> 100 µM (inactive)	17.1 µM (inactive)	18.9 µM (inactive)	21.3 µM (inactive)	5.87 µM (inactive)		19.2 µM (inactive)	36.1 µM (inactive)	18 µM (inactive)	21.8 µM (inactive)	2.09 µM (inactive)	35.9 µM (inactive)	23.3 µM (inactive)	38.2 µM (inactive)	0.39 µM (active)	26.1 µM (inactive)	20.4 µM (inactive)
Nc1ncc2c(n1)-c1ccccc1OC2N1CCOCC1 (stereo unspecified)	> 100 µM (inactive)		> 100 µM (inactive)	> 100 µM (inactive)	> 100 µM (inactive)	> 100 µM (inactive)	> 100 µM (inactive)	> 100 µM (inactive)	> 100 µM (inactive)	> 100 µM (inactive)	45.2 µM (inactive)	> 100 µM (inactive)	> 100 µM (inactive)	> 100 µM (inactive)	> 100 µM (inactive)	> 100 µM (inactive)	> 100 µM (inactive)	> 100 µM (inactive)	
Clc1nc(Cl)c(Cl)c(-c2ccccc2)n1	13.8 µM (inactive)	2.41 µM (inactive)			1.68 µM (inactive)	1.44 µM (inactive)	5.02 µM (inactive)	7.05 µM (inactive)	14.6 µM (inactive)	5.61 µM (inactive)	1.67 µM (inactive)	2.05 µM (inactive)	4.85 µM (inactive)	20.3 µM (inactive)	11.8 µM (inactive)	13.1 µM (inactive)	18.8 µM (inactive)	15.1 µM (inactive)	
CNC(=O)c1nnn(C2CCCCC2)c1S	> 100 µM (inactive)		> 100 µM (inactive)	> 100 µM (inactive)	> 100 µM (inactive)	> 100 µM (inactive)	> 100 µM (inactive)	> 100 µM (inactive)	> 100 µM (inactive)	> 100 µM (inactive)	> 100 µM (inactive)	0.0885 µM (active)	> 100 µM (inactive)	> 100 µM (inactive)	6.11 µM (inactive)	> 100 µM (inactive)		> 100 µM (inactive)	> 100 µM (inactive)
N#C/C(=C\c1cc(Cl)cc(Cl)c1)c1ccccn1	18.9 µM (inactive)	4.71 µM (inactive)	13.6 µM (inactive)	31.8 µM (inactive)	18.2 µM (inactive)	3.95 µM (inactive)	9.59 µM (inactive)	5.61 µM (inactive)		> 100 µM (inactive)	9.44 µM (inactive)	26.1 µM (inactive)	53 µM (inactive)	> 100 µM (inactive)	19.1 µM (inactive)	4.52 µM (inactive)	58.5 µM (inactive)	7.94 µM (inactive)	0.757 µM (active)
S=c1[nH]c2ccc(Br)cc2c(=S)n1-c1ccccc1	26.7 µM (inactive)		29.2 µM (inactive)	22.2 µM (inactive)	21.9 µM (inactive)	29.2 µM (inactive)	16.9 µM (inactive)			17.5 µM (inactive)		20.7 µM (inactive)	28.7 µM (inactive)	32.5 µM (inactive)	14.8 µM (inactive)	43.4 µM (inactive)	42.4 µM (inactive)	6.58 µM (inactive)	32.4 µM (inactive)
